Test results published in US7943654B2, “1H-thieno[2,3-c]pyrazole compounds useful as kinase inhibitors” (Nerviano Medical Sciences S.R.L., priority 2005, dated 2011).

Key:
Aurora-2 = target: T1, Aurora-2 (Homo sapiens, UniProt O14965); assay: Inhibition assay of Aurora-2 activity (SPA); type: biochemical; details: 10 μM ATP, 60 minutes at room temperature
T1 sequence (O14965 1-403): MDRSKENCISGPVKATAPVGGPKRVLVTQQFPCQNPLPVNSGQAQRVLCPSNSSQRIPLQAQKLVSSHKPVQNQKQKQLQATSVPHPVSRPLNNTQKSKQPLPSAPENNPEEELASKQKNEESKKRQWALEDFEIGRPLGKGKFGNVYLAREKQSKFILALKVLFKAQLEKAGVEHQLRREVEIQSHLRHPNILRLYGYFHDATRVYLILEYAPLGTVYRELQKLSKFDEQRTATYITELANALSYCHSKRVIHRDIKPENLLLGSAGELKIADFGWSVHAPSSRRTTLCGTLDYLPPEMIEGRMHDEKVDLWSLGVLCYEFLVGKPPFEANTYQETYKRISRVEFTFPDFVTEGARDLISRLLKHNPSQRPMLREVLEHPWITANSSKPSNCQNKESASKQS
Protocol: The inhibiting activity and the potency of selected compounds is determined through a method of assay based on the use of the SPA technology (Amersham Pharmacia Biotech).
The assay consists of the transfer of radioactivity labelled phosphate moiety by the kinase to a biotinylated substrate. The resulting 33P-labelled biotinylated product is allowed to bind to streptavidin-coated SPA beads (biotin capacity 130 pmol/mg), and light emitted was measured in a scintillation counter.
Inhibition Assay of Aurora-2 Activity
Kinase reaction: 8 μM biotinylated peptide (4 repeats of LRRWSLG) (SEQ ID NO:2), 10 μM ATP (0.5 uCiP^33 γ-ATP), 7.5 ng Aurora 2, inhibitor in a final volume of 30 μl buffer (HEPES 50 mM pH 7.0, MgCl2 10 mM, 1 mM DTT, 0.2 mg/mL BSA, 3 μM orthovanadate) were added to each well of a 96 U bottom well plate. After 60 minutes at room temperature incubation, reaction was stopped and biotinylated peptide captured by adding 100 μl of bead suspension.
Stratification: 100 μl of CsCl 5 M were added to each well and let stand 4 hour before radioactivity was counted in the Top-Count instrument.
IC50 determination: inhibitors were tested at different concentrations ranging from 0.0015 to 10 μM. […]

[1] = system: human colon cancer cell line HCT-116; assay: In vitro cell proliferation assay; type: cell-based; details: HCT-116, 72 hours of treatment, cell count, read-out: Cell Antiproliferation IC50
Protocol: The compounds of the invention were further tested, in vitro to assess the anti-proliferative effect onto cell cultures.
In Vitro Cell Proliferation Assay
The human colon cancer cell line HCT-116 was seeded at 5000 cells/cm^2 in 24 wells plate (Costar) using F12 medium (Gibco) supplemented with 10% FCS (EuroClone, Italy) 2 mM L-glutamine and 1% penicillin/streptomycin and maintained at 37° C., 5% CO2 and 96% relative humidity. The following day, plates were treated in duplicates with 5 ul of an appropriate dilution of compounds starting from a 10 mM stock in DMSO. Two untreated control wells were included in each plate. After 72 hours of treatment, medium was withdrawn and cells detached from each well using 0.5 mL of 0.05% (w/v) Trypsin, 0.02% (w/v) EDTA (Gibco). Samples were diluted with 9.5 mL of Isoton (Coulter) and counted using a Multisizer 3 cell counter (Beckman Coulter). Data were evaluated as percent of the control wells: % of CTR=(Treated−Blank)/(Control−Blank).
IC50 values were calculated by LSW/Data Analysis using Microsoft Excel sigmoidal curve fitting.

Row | Structure (SMILES) | IC50 (Aurora-2) | IC50 [1]
1 | CC(C)(NC(=O)c1cc2c(NC(=O)c3ccccc3NC(=O)c3ccc[nH]3)n[nH]c2s1)c1ccccc1 [Compound (1), 3-{2-[(1H-pyrrole-2-carbonyl)-amino]-benzoylamino}-1H-thieno[2,3-c]pyrazole-5-carboxylic acid (1-methyl-1-phenyl-ethyl)-amide] | 6 nM | 7 nM
2 | CC(C)(NC(=O)c1cc2c(NC(=O)c3ccccc3NC(=O)c3ccc[nH]3)n[nH]c2s1)c1ccccc1F [Compound (2), 3-{2-[(1H-pyrrole-2-carbonyl)-amino]-benzoylamino}-1H-thieno[2,3-c]pyrazole-5-carboxylic acid [1-(2-fluoro-phenyl)-1-methyl-ethyl]-amide] | 12 nM | 54 nM
